Data from patent publication US20260285853A1, “COMPOUNDS AND METHODS FOR MODULATING SPLICING” (REMIX THERAPEUTICS INC., priority 2023, published 2026).
Counter-ions that a name gives are not always drawn.

Experiments:
Type in all cases: cell-based
[1] = tested on: MYB mRNA; assay: Splicing RT-qPCR assay (THP), Table 2A; conditions: Table 2A, THP; for AC50: MYB alternative junction (AJ) mRNA, read-out: MYB AJ (AC50, increase in alternative junction mRNA); for IC50: MYB canonical junction (CJ) mRNA, read-out: MYB CJ (IC50, decrease in canonical junction mRNA)
[2] = tested on: HTT mRNA; assay: Gene panel canonical junction qPCR assay, decrease in CJ mRNA, Table 3; conditions: decrease in CJ mRNA levels, canonical junction qPCR, gene panel
Outline: (§1)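 A673 (DMEM, 10% FBS, 15,000 cells/well) or K562 (IMDM, 10% FBS) cells treated 24 h at 37 °C with 11-point 3-fold dilutions, top 10 uM, DMSO ≤0.25%. Canonical exon-exon junction mRNA measured by RT-qPCR, normalized to GAPDH, GUSB or PPIA and DMSO (ΔΔCt); IC50 from 4-parameter logistic fit.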

[3] = tested on: MYB mRNA; assay: as above; conditions: decrease in CJ mRNA levels, canonical junction qPCR, gene panel
Outline: as §1

[4] = tested on: SH-SY5Y (human neuroblastoma) cells; assay: Cell viability, Cell Titer Glo 2.0 assay; conditions: read-out: Viability SHSY5Y.3 GI50
Outline: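 Toxicity screen in SH-SY5Y cells. Compounds were serially diluted in DMSO and then in medium, giving 0.1% DMSO final. Viability was read with CellTiter-Glo 2.0 after 72 h at 37 °C, 5% CO2, against medium-only blank wells.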

[5] = tested on: HTT mRNA; assay: Splicing RT-qPCR assay (THP), Table 2A; conditions: Table 2A, THP; for AC50: HTT alternative junction (AJ) mRNA, read-out: HTT AJ (AC50, increase in alternative junction mRNA); for IC50: HTT canonical junction (CJ) mRNA, read-out: HTT CJ (IC50, decrease in canonical junction mRNA)

IC50 [1] [nM] | IC50 [2] [µM] | IC50 [3] [nM] | GI50 [4] [µM] | IC50 [5] [µM] | SMILES | AC50 [1] [nM] | AC50 [5] [µM]
> 10000 | > 10 | > 10000 | > 10 | > 10 | Cn1cc2cc(NC(=O)c3ccc(N4CCC(NC5CC5)CC4)c4cn(C)nc34)cc(CN3CCCS3(=O)=O)c2n1 [Compound 818, 4-(4-(cyclopropylamino)piperidin-1-yl)-N-(7-((1,1-dioxidoisothiazolidin-2-yl)methyl)-2-methyl-2H-indazol-5-yl)-2-methyl-2H-indazole-7-carboxamide hydrochloride] | > 10000 | > 10
1000 to 10000 | 1 to 10 | 1000 to 10000 | 1 to 10 | 1 to 10 | COc1c(NC(=O)c2ccc(N3CCC(NC4CC4)CC3)c3cn(C)nc23)cc2cn(C)nc2c1CNS(C)(=O)=O [Compound 819] | 1000 to 10000 | 1 to 10
1000 to 10000 | > 10 | 1000 to 10000 | 1 to 10 | > 10 | Cn1cc2cc(NC(=O)c3ccc(N4CCC(NC5CC5)CC4)c4cn(C)nc34)cc(Cn3ccnn3)c2n1 [Compound 823] | 100 to 1000 | > 10
1000 to 10000 | > 10 | 1000 to 10000 | > 10 | > 10 | CNC1CCN(c2ccc(C(=O)Nc3cn4cc(C)nc(CNS(C)(=O)=O)c4n3)c3nn(C)cc23)CC1 [Compound 825] | 1000 to 10000 | > 10
> 10000 | > 10 | > 10000 | > 10 | > 10 | Cc1cn2cc(NC(=O)c3ccc(N4CCC5(CCCN5)CC4)c4cn(C)nc34)nc2c(CNS(C)(=O)=O)n1 [Compound 826] | > 10000 | > 10
> 10000 | > 10 | > 10000 | > 10 | > 10 | Cc1cn2cc(NC(=O)c3ccc(N4CCC(NC5CC5)CC4)c4cn(C)nc34)nc2c(CNC(N)=O)n1 [Compound 829] | > 10000 | > 10
> 10000 | > 10 | > 10000 | > 10 | > 10 | Cc1cn2cc(NC(=O)c3ccc(N4CCC(NC5CC5)CC4)c4cn(C)nc34)nc2c(Cn2cnc3c(N)ncnc32)n1 [Compound 830] | > 10000 | > 10
100 to 1000 | 1 to 10 | 100 to 1000 | 1 to 10 | 1 to 10 | C=CCNC1CCN(c2ccc(C(=O)Nc3cc(CNC(=O)OC)c4nn(C)cc4c3)c3nn(C)cc23)CC1 [Compound 833] | 100 to 1000 | 1 to 10
> 10000 | > 10 | > 10000 | > 10 | > 10 | Cn1cc2cc(NC(=O)c3ccc(N4CCC(NC5CC5)CC4)c4cn(C)nc34)cc(CNC3(C)COC3)c2n1 [Compound 834] | > 10000 | > 10
> 10000 | > 10 | > 10000 | > 10 | > 10 | C=CCNC1CCN(c2ccc(C(=O)Nc3cc(CNC4(C)COC4)c4nn(C)cc4c3)c3nn(C)cc23)CC1 [Compound 835] | > 10000 | > 10
< 100 | 1 to 10 | < 100 | 0.1 to 1 | 1 to 10 | Cc1cn2cc(NC(=O)c3ccc(N4CCC(NC5CC5)CC4)c4cn(C)nc34)nc(CNS(C)(=O)=O)c2n1 [Compound 837, 4-[4-(cyclopropylamino)-1-piperidyl]-N-[8-(methanesulfonamidomethyl)-2-methyl-imidazo[1,2-a]pyrazin-6-yl]-2-methyl-indazole-7-carboxamide] | < 100 | 1 to 10
1000 to 10000 | > 10 | 1000 to 10000 | 1 to 10 | > 10 | COc1cc2c(N3CCC(NC4CC4)CC3)ccc(C(=O)Nc3cc(CNS(C)(=O)=O)c4nc(C)cn4c3)n2n1 [Compound 838] | 1000 to 10000 | > 10

Second part, the molecule before the results:

SMILES | IC50 [1] [nM] | IC50 [2] [µM] | IC50 [3] [nM] | GI50 [4] [µM] | IC50 [5] [µM] | AC50 [1] [nM] | AC50 [5] [µM]
CCNC1CCN(c2ccc(C(=O)Nc3cc(CNS(C)(=O)=O)c4nc(C)cn4c3)c3nn(C)cc23)CC1 [Compound 817, 4-[4-(ethylamino)-1-piperidyl]-N-[8-(methanesulfonamidomethyl)-2-methyl-imidazo[1,2-a]pyridin-6-yl]-2-methyl-indazole-7-carboxamide] | 1000 to 10000 | > 10 | 1000 to 10000 | > 10 | > 10 | 1000 to 10000 | > 10
CCNC1CCN(c2ccc(C(=O)Nc3cc(CN4CCCC4=O)c4nn(C)cc4c3)c3nn(C)cc23)CC1 [Compound 820, 4-[4-(ethylamino)-1-piperidyl]-2-methyl-N-[2-methyl-7-[(2-oxopyrrolidin-1-yl)methyl]indazol-5-yl]indazole-7-carboxamide] | 1000 to 10000 | > 10 | 1000 to 10000 | > 10 | > 10 | > 10000 | > 10
COc1cc2c(N3CCC(NC4CC4)CC3)ccc(C(=O)Nc3cc(CNS(C)(=O)=O)c4nn(C)cc4c3)n2n1 [Compound 821] | 100 to 1000 | 1 to 10 | 100 to 1000 | 1 to 10 | 1 to 10 | 100 to 1000 | > 10
Cc1cc2c(N3CCC(NC4CC4)CC3)ccc(C(=O)Nc3cc(CNS(C)(=O)=O)c4nn(C)cc4c3)n2n1 [Compound 822] | 100 to 1000 | > 10 | 100 to 1000 | 0.1 to 1 | > 10 | 100 to 1000 | > 10
Cn1cc2cc(NC(=O)c3ccc(N4CCC(NC5CC5)CC4)c4cn(C)nc34)cc(Cn3nccn3)c2n1 [Compound 824] | 1000 to 10000 | > 10 | 1000 to 10000 | 1 to 10 | > 10 | 1000 to 10000 | > 10
Cc1cn2cc(NC(=O)c3ccc(N4CCC(NC5CC5)CC4)c4cn(C)nc34)nc2c(Cn2cnc3ncnc(N)c32)n1 [Compound 831] | 100 to 1000 | 0.1 to 1 | 100 to 1000 | 0.1 to 1 | 0.1 to 1 | 100 to 1000 | 0.1 to 1
CNS(=O)(=O)CCc1nc(C)cn2cc(NC(=O)c3ccc(N4CCC(NC5CC5)CC4)c4cn(C)nc34)nc12 [Compound 832] | 1000 to 10000 | 1 to 10 | 1000 to 10000 | 1 to 10 | 1 to 10 | 1000 to 10000 | 1 to 10
C=CCNC1CCN(c2ccc(C(=O)Nc3cc(CNS(C)(=O)=O)c4nc(C)cn4c3)c3nn(C)cc23)CC1 [Compound 836, 4-[4-(allylamino)-1-piperidyl]-N-[8-(methanesulfonamidomethyl)-2-methyl-imidazo[1,2-a]pyridin-6-yl]-2-methyl-indazole-7-carboxamide] | 100 to 1000 | > 10 | 100 to 1000 | 1 to 10 | > 10 | 100 to 1000 | > 10
